Data: patent publication US12337033B2, “Encapsulated glycolipid antigens for treatment of neoplastic diseases” (EnGeneIC Molecular Delivery Pty Ltd, priority 2019, dated 2025)

Experiments:
JAWSII cells = experiment: αGC surface presentation through CD1d on JAWSII cells (anti-alpha GalCer:mCD1d staining, flow cytometry); format: cell-based, mouse; settings: 8h-48h post-treatment, compared to minicells alone and untreated, free αGC 1000 ng/ml
Description: Cells used: Mouse immature […] JAWSII (ATCC® CRL-11904™).
Preparation Perfecta3D 96-Well Hanging Drop Plate: The upper and lower side tray reservoirs of the 3D hanging drop plates were filled with melted 1% agarose using a P1000 pipette (1 g agarose dissolve in 100 ml of water, dissolved in microwave and allowed to cool to ˜50° C.). The plates were allowed to dry and settle at room temperature for at least 30 min. The outside wells of the hanging drop plate were then filled with 50 μl of sterile cell culture media (without cells)/well.
Treatment of JAWSII spheroids with EDVαGC: JAWSII cells were treated with 1000 ng/ml aGC (positive control); empty minicells and minicellsαGC compared to untreated cells and collected at 8h, 16h, 24h and 48h post-treatment (FIGS. 8A-8D).
Dissociation of JAWSII cells into single-cell suspensions: JAWSII cells were grown as semi-suspension cultures in T25 or T75 flasks. The culture media was carefully collected into a sterile 50 ml tube by pipetting using a pipette-aid and the culture surface of the flask was washed 2× with 5 ml of sterile PBS, and collected in the same sterile 50 ml tube after each wash. […] To determine the cell number, 10 μl of the cell suspension was mixed with 10 μl of trypan blue solution and analyzed using an EVE automated cell counter. […]

[1] = tested on: many different tumor cell lines; experiment: Cytotoxicity assays against tumor cell lines; format: cell-based

Compound | staining with anti-GalCer:mCD1d (α-GC presentation on the cell surface by CD1d) (JAWSII cells) | drug resistance in tumor cell lines ([1]; a number of different tumor cell lines) | potency compared with a range of conventional chemotherapeutics ([1]; cytotoxicity assays, many different tumor cell lines)
CCCCCCCCCCCCCCCCCCCCCCCCCC(=O)N[C@@H](CO[C@H]1O[C@H](CO)[C@H](O)[C@H](O)[C@H]1O)[C@H](O)[C@H](O)CCCCCCCCCCCCCC [free α-GC, α-galactosylceramide] | clear shift | – | –
COc1cccc2c1C(=O)c1c(O)c3c(c(O)c1C2=O)C[C@@](O)(C(=O)CO)C[C@@H]3OC1CC2C(OC3C(OC)OCCN23)C(C)O1 (stereo partly drawn) [PNU159682, 3′-deamino-3″,4′-anhydro-[2″(S)-methoxy-3″(R)-oxy-4″-morpholinyl] doxorubicin] | – | appears to overcome drug resistance | much more potent
